Assay results reported in US6667328B2, “Therapeutic agents for diabetes” (Fujimoto Brothers Co., Ltd., priority 2000, dated 2003).

Experiments:
[1] = system: 3T3-L1 preadipocyte cells; assay: Differentiation-inducing actions on adipose cells (oil red-O staining, absorbance at 490 nm); format: cell-based; settings: 3T3-L1, oil red-O extract absorbance at 490 nm, ratio to control group (1.0)
Method: The cloned cell line 3T3-L1 of the preadipocyte cells at the 9-20th generation were used. The cell suspension at a concentration of 2×10^4 cells/ml was added 500 μl/well in a 24 well microplate. Then, the microplates were cultured at 37° C. in the atmosphere of 5% CO2 for 4 days with D-MEM containing 5% inactivated fetal calf serum (hereinafter abbreviated as “FCS D-MEM”). Next, the following procedures were conducted.
(1) To test compound of this invention, 500 μl/well of the following solutions was added to each well:
1) test compound-containing medium (T-MEM) in which the test compound in a stock solution (30 mM in DMSO) was diluted with FCS D-MEM containing 0.1 μM dexamethazone and 100 ng/ml insulin (hereinafter abbreviated as DEX-Ins-FCS D-MEM);
2) FCS-D-MEM; 3) DEX-Ins-FCS D-MEM; 4) 0.1% DMSO-containing DEX-Ins-FCS D-MEM for me control wells.
(2) After above additions were done, the culture plates were incubated at 37° C. in 5% CO2 for 3 days. Then, the same operations as in the procedure (1) were repeated for exchange of the culture medium. The culture plates were incubated at 37° C. in 5% CO2 for further 3 days.
(3) After incubation, the culture medium was removed from the culture plates. Then, the FCS D-MEM was added to the FCS D-MEM-wells, and next the medium prepared for containing 100 ng/ml of insulin with the FCS D-MEM (hereinafter abbreviated as “Ins-FCS D-MEM”) was added at 500 μl/well to the T-MEM wells and DEX-Ins-FCS D-MEM wells. All culture plates were incubated for 4 days.
(4) After incubation, the culture medium was removed. For cell fixation, 500 μl/well of 10% formalin in neutral buffer was added, and left at the room temperature for approximately 20 minutes or longer. Then the formalin solution was removed, and 60% 2-propanol solution was added at 500 μl/well, then quickly removed, and the oil red-O staining solution was added at 250 μl/well. The culture plates were sealed with plate seals, and left at room temperature for 30 minutes or longer. After incubation, the staining solution was removed, and the 60% 2-propanol solution was added at 500 μl/well, and quickly removed. The cells were rinsed with water a few times, and then water drops were flipped away. A cell-lysis buffer was added at 500 μl/well, and the culture plates were sealed with plate seals, and left at 37° C. for 1 hour to extract the pigments. Next, 300 μl/well of the extract solution was transferred at a 96 well micro-plates, and then the absorbance of each extract was measured at wavelength of 490 nm.
The absorbance ratios of the respective test compounds-groups to the control group, the mean absorbance of which was designated as 1.0, are shown in Table 8. Based on the judgement that the absorbance higher than that of the control group indicates a greater differentiation-inducing activity of the test compound, the compounds of the present invention were determined to have the activity to induce differentiation of preadipocytes to adipocytes, resulting in elevating insulin sensitivity of organs. Thereby, this activity would confer the efficacy in the therapy of diabetes.

mice = assay: Acute toxicity tests with single dosing in mice; format: in vivo; settings: 2000 mg/kg single oral dose, observed for 2 weeks
Method: The compounds (the compound 1 and 10) of the present invention were singly orally administered to each mouse at a dose of 2000 mg/kg.

[2] = system: fructose-induced hyperlipidemic rats; assay: Hypotriglyceridemic activity in fructose-induced hyperlipidemic rats; format: in vivo, Sprague Dawley rats; settings: fructose-loaded rats, 30 mg/kg p.o. once daily for 7 days; for inhibition in vivo at 30 mg/kg: Rattus norvegicus, po, 168 h, read-out: Reduction in Serum Triglyceride (%)
Method: The compounds were tested for a hypotriglyceridemic activity in fructose-induced hyperlipidemic rats in accordance with the method described in Nippon Yakurigaku Zasshi, 92 (3), 175-180 (1988). Sprague Dawley rats were grouped by the ranking method of body weight. Then, instead of drinking water, rats were given 75% fructose aqueous ad libitum for one week, thereby, resulting in the state of hypertriglyceridemia. The compounds of the present invention, suspended in 3% Arabic gum aqueous solution, and a dose of 30 mg/kg was orally administrated once daily for 7 days during the fructose-loading period. The control group of rats were given 3% Arabic gum aqueous solution only. Two hours later of the final administration, the rats were bled from the abdominal aorta to measure serum triglycerides and total cholesterol. The reduction rate (%) of each measurement compared to the control groups was calculated according to the equation indicated in EXAMPLE 4.

db/db mice = assay: Antihyperlipidemic activities in genetically diabetic mice; format: in vivo; settings: 150 mg/kg p.o. once daily for 14 days, serum
Method: (§1) Genetically diabetic db/db mice (C57BL/ksJ Jcl-dbm db/db mice) older than 8 weeks were grouped depend on their blood sugar levels of the prior measurements in order to divide groups with almost equal mean value of the sugar level. The respective groups of db/db mice were designates as the following groups: the group given the compound of the present invention, the group of troglitazone, and the group given no administrating group. For the compounds of the present invention, two doses: 75 mg/kg and 150 mg/kg, and for troglitazone, a dose of 150 mg/kg were individually given to the mice as a forced oral administration once daily for 14 days successively. These agents were suspended in 3.0% Arabic gum solution for administration. To the control group, only the same volume of 3.0% Arabic gum solution was administered. On the next day of the final administration, each mouse was […] for sampling. The blood samples were subject to serum separation. The glucose level in the serum of each group was measured. Then, a reduction rate in a glucose level (%) compared to the control group was calculated with mean value of each group according to the equation below. […] [formula]
In the same way as described in EXAMPLE 4, db/db mice were grouped in the manner by which the respective groups had almost equivalent mean blood sugar levels. The compounds 1, 3, 13, 21 and 22 of the present invention, suspended in 3.0% Arabic gum solution, were orally administrated, with a dose of 150 mg/kg, once daily for successive 14 days. The control group of mice were given the vehicle solution only. On the next day of the final administration, each mouse was bled for sampling. The blood was subjected for serum separation, and then subjected to measurements of β-lipoproteins, free fatty acids, and triglycerides. The reduction rate (%) of each measurement compared to the control group was calculated by the equation indicated in EXAMPLE 4. […] (Table 9).

[3] = system: Genetically diabetic db/db mice (C57BL/ksJ Jcl-dbm db/db mice); assay: Blood sugar lowering actions in genetically diabetic mice; format: in vivo; settings: serum glucose vs control group
Method: as §1

[4] = system: Salmonella typhimurium TA100 and TA98; assay: Mutagenesis tests (reverse mutation test); format: cell-based; settings: TA100 and TA98, direct method (−s9mix) and metabolically activated method (+s9mix)
Method: In order to examine mutagenecity of the compound 1, the reverse mutation test was conducted with use of Salmonella typhimurium TA100 and TA98.

[5] = system: high cholesterol-fed hamsters; assay: Lipid lowering effects in high cholesterol-fed hamsters; format: in vivo, Syrian hamsters; settings: serum, negative = elevation
Source text: According to the method described in Jpn Pharmacol Ther, 23 (suppl 4), s1047-1053 (1995), male Syrian hamstars were fed for 3 weeks with 1% cholesterol 10% coconut oil (W/W) supplemented diet, and thereby, became to be hypercholesterolemia models. Prior to administration of the compounds, under ether anesthesia, the hamsters were bled from the orbital vein for measurement of serum total cholesterol. They were grouped in the manner by which the respective groups had almost equal serum total cholesterol levels. The normal group of hamsters were fed ordinary diet. Thereafter, the compound 1 and bezafibrate were orally administered once daily at doses of 15 (for only compound 1), 30, 60 and 120 mg/kg for 7 days. Even during the treatment period, cholesterol loading was continued. Four hours later of the final administration, the hamsters were bled by cardiac puncture. The total cholesterol and triglycerides in the serum obtained were measured by the enzymatic method. The results are shown in Table 11 (the negative values mean elevation rates.)
The actions of the compounds of the present invention at a dose of 15 mg/kg were measured in the same method as described in EXAMPLE 8.

[6] = 75 mg/kg oral once daily for 14 days
[7] = 150 mg/kg oral once daily for 14 days
[8] = 15 mg/kg oral once daily for 7 days
[9] = 30 mg/kg oral once daily for 7 days
[10] = 60 mg/kg oral once daily for 7 days
[11] = 120 mg/kg oral once daily for 7 days

SMILES | Absorbance Ratio [1] | Survival after single oral dose (mice) | inhibition in vivo at 30 mg/kg [2] [%] | Reduction Rate (%) Free Fatty Acids (db/db mice) [%] | Reduction Rate (%) Triglycerides (db/db mice) [%] | Reduction Rate (%) β-lipoproteins (db/db mice) [%] | Reduction in Blood Glucose (%) [3, 6] [%] | Reduction in Blood Glucose (%) [3, 7] [%] | Mutagenicity (number of reversely mutated colonies) [4] | Reduction Rate (%) Total cholesterol [5, 8] [%] | Reduction Rate (%) Triglyceride [5, 8] [%] | Reduction Rate (%) Total cholesterol [5, 9] [%] | Reduction Rate (%) Triglyceride [5, 9] [%] | Reduction Rate (%) Total cholesterol [5, 10] [%] | Reduction Rate (%) Triglyceride [5, 10] [%] | Reduction Rate (%) Total cholesterol [5, 11] [%] | Reduction Rate (%) Triglyceride [5, 11] [%] | Reduction in Serum Triglyceride (%) [2] [%]
N#CN=C1NC(=O)C(=Cc2ccc(OCCc3ccccc3)cc2)S1 [Compound 10, 2-(N-Cyanoimino)-5-(4-phenethyloxybenzylidene)thiazolidin-4-one] | 2.12 | all 3 mice given the respective compounds survived | 39 | – | – | – | – | – | – | – | – | – | – | – | – | – | – | –
N#CN=C1NC(=O)C(=Cc2ccc(COCc3ccccc3)cc2)S1 [Compound 3, 2-(N-Cyanoimino)-5-[4-(benzyloxymethyl)benzylidene]thiazolidin-4-one] | 1.48 | – | 64 | 58 | 85 | 65 | 24 | 49 | – | – | – | – | – | – | – | – | – | –
N#CN=C1NC(=O)/C(=C\c2ccc(C=Cc3ccccc3)cc2)S1 [Compound 1, 2-(N-Cyanoimino)-5-[(E)-4-stylylbenzylidene]thiazolidin-4-one] | 1.46 | all 3 mice given the respective compounds survived | – | 39 | 69 | 51 | 31 | 37 | non-mutagenic | 26 | 60 | 25 | 62 | 29 | 69 | 41 | 80 | 47
